According to patent US20240122879A1, “COMPOSITIONS AND METHODS FOR TREATING OCULAR CHEMICAL BURNS” (OHIO STATE INNOVATION FOUNDATION, priority 2022, published 2024):

Experiments:
Type in all cases: cell-based, mouse
[1] = system: mCEC; assay: Scratch wound assay of mCECs treated with recombinant cytokines; details: recombinant proteins, FIG. 4A, 4B
Protocol: (§1) Recombinant pro-IL-1β and pro-IL-18 proteins were generated from E. coli. The proteins were treated with caspase 1 to obtain the active forms.
The coding sequences of human pro-IL-18 and pro-IL-1β were cloned into the PET28a vector, where an N-terminal 6xHis tag is added. The purification procedure is similar to the published protocol with minor modifications (Ramirez, et al. J Biol Chem. 2018 293(18): 7058-7067). Briefly, the respective plasmid was transformed into BL21 […] chemically competent cells. A single colony was picked to grow in LB media at 37° C. until OD600 researched 0.6, and 0.5 mM IPTG was used for overnight induction at ˜16° C. Harvested cells were collected by centrifugation, followed by resuspension in 50 mM Hepes (pH 7.5), 5 mM MgCl2, 1 mM PMSF, ˜0.5 mg/ml lysozyme and 50-100 U DNase I. After sonication, the cell lysates were centrifuged. The supernatant was then applied to a Ni-NTA affinity chromatography, where buffer A contained 50 mM Hepes (pH 7.5) and Buffer B contained an extra 500 mM imidazole. Fractions with the highest purities were pooled and applied to a diethylaminoethyl-cellulos (DEAE) ion exchange chromatography, where buffer A′ contained 50 mM Hepes (pH 7.5) and Buffer B′ contained an extra 500 mM NaCl. As judged by SDS PAGE, fractions with >95% purity were pooled and dialyzed in 50 mM Hepes (pH 7.5) and 100 mM NaCl.
Recombinant human caspase-1 was purchased from Enzo Life Sciences (ALX-201-056). The cleavage of pro-IL-18 or pro-IL-1β was performed at 37° C. in PBS buffer containing 2 mM DTT.
To induce cellular migration, an in vitro scratch test was performed using mCECs. Cells were treated with dissected corneas or cytokines when they reached confluence, were subsequently scratched with a micropipette tip, and incubated for up to 12 hrs. Images were taken at 0, 3, 6, and 9 hours after the initial scratch. Images of wound closure were quantified by using ImageJ software.

[2] = system: mCEC; assay: Transepithelial electrical resistance (TEER) of mCEC treated with recombinant proteins; details: FIG. 4C
Protocol: as §1
mCEC were seeded in transwell inserts (2×10^5 per well) and allowed to become confluent. For the protein treatment, proteins were added into the culture medium 16 or 4 hours before measurement; the EVOM2 instrument was used to measure the TEER. For the co-culture experiments, mCEC were seeded in the transwell inserts and allowed to become confluent. The isolated primary neutrophils were then seeded into 24 well plates and the EVOM2 instrument was used to measure the TEER at 24 hr.

[3] = system: corneal epithelial cells; assay: ZO-1 staining of corneal epithelial cells treated with recombinant proteins; details: FIG. 4D, 4E
Protocol: as §1

Row | Substance | mCEC wound closure / migration [1] | epithelial tight junctions / electrical resistance by TEER [2] | tight junctions by ZO-1 staining [3] | also measured
1 | pro-IL-18: recombinant pro-IL-18 protein generated from E. coli, used as control | failed to alter mCEC migration | – | – | –
2 | boiled IL-1β: boiled recombinant IL-1β protein used as control | failed to alter mCEC migration | – | – | –
3 | active IL-18: recombinant human pro-IL-18 from E. coli treated with caspase 1 to obtain the active form | significantly delayed mCEC wound closure | disrupted epithelial cell tight junctions | disrupted epithelial cell tight junctions | epithelial tight junctions / electrical resistance by TEER ([2]; listed as activated IL-18): significantly reduce the electrical resistance; mCEC wound closure / migration ([1]; listed as activated IL-18): significantly suppress corneal epithelial cell migration; tight junctions by ZO-1 staining ([3]; listed as activated IL-18): tight junction was disrupted
4 | active IL-1β: recombinant human pro-IL-1β from E. coli treated with caspase 1 to obtain the active form | significantly delayed mCEC wound closure | disrupted epithelial cell tight junctions | disrupted epithelial cell tight junctions | epithelial tight junctions / electrical resistance by TEER ([2]; listed as activated IL-1β): significantly reduce the electrical resistance; mCEC wound closure / migration ([1]; listed as activated IL-1β): significantly suppress corneal epithelial cell migration; tight junctions by ZO-1 staining ([3]; listed as activated IL-1β): tight junction was disrupted
5 | boiled IL-18: boiled recombinant IL-18 protein used as control | failed to alter mCEC migration | – | – | –
6 | pro-IL-1β: recombinant pro-IL-1β protein generated from E. coli, used as control | failed to alter mCEC migration | – | – | –
